Results as given in PMC11845477, “Exploring the principles behind antibiotics with limited resistance” (Nature Communications, 2025).
Like-named read-outs stand apart in the source and are kept apart here.

Legend:
[1] = system: A. baumannii ATCC 17978 (SEN) and A. baumannii ATCC BAA-1605 (MDR); assay: Adaptive laboratory evolution (ALE), relative MIC of evolved lines; assay type: cell-based, Acinetobacter baumannii
Source text: Using the same set of bacterial strains, we initiated adaptive laboratory evolution with the aim to maximize the level of antibiotic resistance in the populations achieved during a longer, but fixed time period.
An established protocol for adaptive laboratory evolution[46],[73] was followed to propagate populations with the highest resistance levels. Starting with an antibiotic concentration that caused approximately 50% growth inhibition, ten parallel populations for each antibiotic-ancestor strain combination were grown for 72 hours at 37 °C with continuous shaking (300 RPM). MHB broth medium was used unless stated otherwise. After each incubation, 20 µl of each culture was transferred to four new wells containing fresh medium with increasing antibiotic concentrations (0.5×, 1×, 1.5×, and 2.5× the previous concentration) in a chessboard layout to monitor potential cross-contamination. Growth was monitored by measuring OD600 using a Biotek Synergy 2 microplate reader, and only populations grown in the highest drug concentration with an OD600 > 0.2 were transferred further.
(§1) A robotic liquid handling system was used to automatically prepare a 11 to 16-step serial dilution in 384-well microtiter plates (Greiner). A final concentration of 5 × 10^5 bacterial cells per mL were inoculated into each well containing 60 µL MHB medium. Bacterial cultures were incubated at 37 °C with continuous shaking (Infors shaker, 900 rpm with 3 mm throw) for 18 hours (2 replicates from each). Cell growth was monitored by measuring the optical density (OD600 values, using Biotek Synergy microplate reader). MIC was defined as the antibiotic concentration of complete growth inhibition (i.e., OD600 < 0.05). Relative MIC was calculated as follows:1 relativeMIC=MICevolved/MICancestor […]
(§2) Supplementary Figure 4. Resistance levels following adaptive laboratory evolution across bacterial strains. The level of resistance was measured as the fold change in relative MIC between evolved and ancestral strains after ~60 days of adaptive laboratory evolution. Data are grouped by bacterial strain (A. baumannii (AB), E. coli (EC), K. pneumoniae (KP), and P. aeruginosa (PA)) and categorized as either multidrug-resistant (MDR) or sensitive (SEN). Each data point represents a laboratory evolved line, and boxplots show the median, first and third quartiles, with whiskers indicating the 5th and 95th percentiles.
(§3) Statistical analysis was performed using two-sided Dunn’s post-hoc test with Benjamini-Hochberg correction for multiple comparisons (****/ ***/ **/ * indicates p < 0.0001/ 0.001/ 0.01/ 0.05). For detailed information on antibiotic and bacterial species, see Supplementary Table 1. For mode of action groups, refer to Table 1. Source data are provided as a Source Data file.

[2] = system: E. coli ATCC 25922 (SEN) and E. coli NCTC13846 (MDR); assay: Frequency-of-resistance (FoR) assay, relative MIC of mutants; assay type: cell-based, Escherichia coli; details: for MIC: Escherichia coli
Description: The susceptibility of antibiotics to resistance development was evaluated in two strains of each bacterial species: a multidrug-resistant strain and an antibiotic-sensitive strain of Escherichia coli, Klebsiella pneumoniae, Acinetobacter baumannii, and Pseudomonas aeruginosa. To explore first-step resistance, we previously used a standard protocol for spontaneous frequency-of-resistance analysis (FoR assay) at multiple concentrations of each antibiotic[10],[28],[31]–[33]. […] For all other combinations, approximately 10^10 bacterial cells were exposed to one of each antibiotic on agar plates for two days at concentrations where the given strain is susceptible. We examined resistance levels by contrasting the minimum inhibitory concentration (MICs) of the mutated strains to the original wild-type bacterial strain (i.e., relative MIC).
To estimate the frequency of spontaneous mutations that confer resistance in a microbial population, we conducted a frequency of resistance (FoR) assay following established protocols[10],[31]–[33]. […] Prior to plating, bacteria were grown overnight in MHB medium at 37 °C and 250 RPM, then centrifuged and washed in MHB. All experiments were performed in triplicate, and plates were incubated at 37 °C for 48 hours. Total colony-forming units (CFUs) were determined by plating appropriate dilutions onto antibiotic-free MHB agar. Resistance frequencies were calculated by dividing the number of resistant colonies by the initial viable cell count. From the plates with the highest antibiotic concentration, ten colonies were selected for MIC determination and whole-genome sequencing.
as §1
as §2, with “3.” for “4.”, “the frequency of resistance assay” for “adaptive laboratory evolution”, “strains.” for “strains after ~60 days of adaptive laboratory evolution.”, “percentiles. […]” for “percentiles.”
as §3, with “analysis” for “Statistical analysis”, “(**/” for “(****/ ***/ **/”, “<” for “< 0.0001/ 0.001/”

CN(C)[C@@H]1C(O)=C(C(N)=O)C(=O)[C@@]2(O)C(O)=C3C(=O)c4c(O)c(NC(=O)CN5CCCC5)cc(F)c4C[C@H]3C[C@@H]12 [Eravacycline]
Relative MIC ([1]; AB-MDR (ATCC BAA 1605), evolved line 1, MIC of evolved line / MIC of ancestor): 16 | Relative MIC ([1]; AB-MDR (ATCC BAA 1605), evolved line 2, MIC of evolved line / MIC of ancestor): 32 | Relative MIC ([1]; AB-MDR (ATCC BAA 1605), evolved line 3, MIC of evolved line / MIC of ancestor): 32 | Relative MIC ([1]; AB-MDR (ATCC BAA 1605), evolved line 4, MIC of evolved line / MIC of ancestor): 32 | Relative MIC ([1]; AB-MDR (ATCC BAA 1605), evolved line 5, MIC of evolved line / MIC of ancestor): 16 | Relative MIC ([1]; AB-MDR (ATCC BAA 1605), evolved line 6, MIC of evolved line / MIC of ancestor): 32 | Relative MIC ([1]; AB-MDR (ATCC BAA 1605), evolved line 7, MIC of evolved line / MIC of ancestor): 32 | Relative MIC ([1]; AB-MDR (ATCC BAA 1605), evolved line 8, MIC of evolved line / MIC of ancestor): 32 | Relative MIC ([1]; AB-MDR (ATCC BAA 1605), evolved line 9, MIC of evolved line / MIC of ancestor): 32 | Relative MIC ([1]; AB-MDR (ATCC BAA 1605), evolved line 10, MIC of evolved line / MIC of ancestor): 32 | Relative MIC (log10) ([1]; AB-MDR (Acinetobacter baumannii ATCC BAA 1605), evolved line 2 adapted to the named antibiotic): 1.505 | Relative MIC (log10) ([1]; AB-MDR (Acinetobacter baumannii ATCC BAA 1605), evolved line 3 adapted to the named antibiotic): 1.505 | Relative MIC (log10) ([1]; AB-MDR (Acinetobacter baumannii ATCC BAA 1605), evolved line 4 adapted to the named antibiotic): 1.505 | Relative MIC (log10) ([1]; AB-MDR (Acinetobacter baumannii ATCC BAA 1605), evolved line 6 adapted to the named antibiotic): 1.505 | Relative MIC (log10) ([1]; AB-MDR (Acinetobacter baumannii ATCC BAA 1605), evolved line 10 adapted to the named antibiotic): 1.505 | Relative MIC ([1]; AB-SEN (ATCC 17978), evolved line 1, MIC of evolved line / MIC of ancestor): 64 | Relative MIC ([1]; AB-SEN (ATCC 17978), evolved line 2, MIC of evolved line / MIC of ancestor): 128 | Relative MIC ([1]; AB-SEN (ATCC 17978), evolved line 3, MIC of evolved line / MIC of ancestor): 128 | Relative MIC ([1]; AB-SEN (ATCC 17978), evolved line 4, MIC of evolved line / MIC of ancestor): 128 | Relative MIC ([1]; AB-SEN (ATCC 17978), evolved line 5, MIC of evolved line / MIC of ancestor): 128 | Relative MIC ([1]; AB-SEN (ATCC 17978), evolved line 6, MIC of evolved line / MIC of ancestor): 128 | Relative MIC ([1]; AB-SEN (ATCC 17978), evolved line 7, MIC of evolved line / MIC of ancestor): 128 | Relative MIC ([1]; AB-SEN (ATCC 17978), evolved line 8, MIC of evolved line / MIC of ancestor): 64 | Relative MIC ([1]; AB-SEN (ATCC 17978), evolved line 9, MIC of evolved line / MIC of ancestor): 128 | Relative MIC ([1]; AB-SEN (ATCC 17978), evolved line 10, MIC of evolved line / MIC of ancestor): 128 | Relative MIC (log10) ([1]; AB-SEN (Acinetobacter baumannii ATCC 17978), evolved line 2 adapted to the named antibiotic): 2.107 | Relative MIC (log10) ([1]; AB-SEN (Acinetobacter baumannii ATCC 17978), evolved line 4 adapted to the named antibiotic): 2.107 | Relative MIC (log10) ([1]; AB-SEN (Acinetobacter baumannii ATCC 17978), evolved line 6 adapted to the named antibiotic): 2.107 | Relative MIC (log10) ([1]; AB-SEN (Acinetobacter baumannii ATCC 17978), evolved line 8 adapted to the named antibiotic): 1.806 | Relative MIC (log10) ([1]; AB-SEN (Acinetobacter baumannii ATCC 17978), evolved line 9 adapted to the named antibiotic): 2.107 | Relative MIC ([1]; Acinetobacter baumannii ATCC 17978 (AB-SEN), evolved line 1): 64 | Relative MIC ([1]; Acinetobacter baumannii ATCC 17978 (AB-SEN), evolved line 2): 128 | Relative MIC ([1]; Acinetobacter baumannii ATCC 17978 (AB-SEN), evolved line 3): 128 | Relative MIC ([1]; Acinetobacter baumannii ATCC 17978 (AB-SEN), evolved line 4): 128 | Relative MIC ([1]; Acinetobacter baumannii ATCC 17978 (AB-SEN), evolved line 5): 128 | Relative MIC ([1]; Acinetobacter baumannii ATCC 17978 (AB-SEN), evolved line 6): 128 | Relative MIC ([1]; Acinetobacter baumannii ATCC 17978 (AB-SEN), evolved line 7): 128 | Relative MIC ([1]; Acinetobacter baumannii ATCC 17978 (AB-SEN), evolved line 8): 64 | Relative MIC ([1]; Acinetobacter baumannii ATCC 17978 (AB-SEN), evolved line 9): 128 | Relative MIC ([1]; Acinetobacter baumannii ATCC 17978 (AB-SEN), evolved line 10): 128 | Relative MIC ([1]; Acinetobacter baumannii ATCC BAA 1605 (AB-MDR), evolved line 2): 32 | Relative MIC ([1]; Acinetobacter baumannii ATCC BAA 1605 (AB-MDR), evolved line 4): 32 | Relative MIC ([1]; Acinetobacter baumannii ATCC BAA 1605 (AB-MDR), evolved line 5): 16 | Relative MIC ([1]; Acinetobacter baumannii ATCC BAA 1605 (AB-MDR), evolved line 6): 32 | Relative MIC ([1]; Acinetobacter baumannii ATCC BAA 1605 (AB-MDR), evolved line 7): 32 | Relative MIC ([1]; Acinetobacter baumannii ATCC BAA 1605 (AB-MDR), evolved line 8): 32 | Relative MIC ([1]; Acinetobacter baumannii ATCC BAA 1605 (AB-MDR), evolved line 9): 32 | Relative MIC ([1]; Acinetobacter baumannii ATCC BAA 1605 (AB-MDR), evolved line 10): 32 | Relative MIC ([1]; Acinetobacter baumannii ATCC BAA 1605 (AB-MDR), evolved line 1): 16 | Relative MIC ([1]; Acinetobacter baumannii ATCC BAA 1605 (AB-MDR), evolved line 3): 32 | Relative MIC ([2]; E. coli NCTC 13846 (EC-MDR), evolved line 1, evolved vs ancestor): 2 | Relative MIC ([2]; E. coli NCTC 13846 (EC-MDR), evolved line 2, evolved vs ancestor): 1 | Relative MIC ([2]; E. coli NCTC 13846 (EC-MDR), evolved line 3, evolved vs ancestor): 2 | Relative MIC ([2]; Escherichia coli ATCC 25922 (EC-SEN), evolved line 1 versus ancestor): 2 | Relative MIC ([2]; Escherichia coli ATCC 25922 (EC-SEN), evolved line 2 versus ancestor): 1 | Relative MIC ([2]; Escherichia coli ATCC 25922 (EC-SEN), evolved line 3 versus ancestor): 2 | MIC ([2]; read-out: MIC of evolved line, E. coli NCTC 13846 (EC-MDR), evolved line 1): 2 µg/mL | MIC ([2]; read-out: MIC of evolved line, E. coli NCTC 13846 (EC-MDR), evolved line 3): 2 µg/mL | MIC ([2]; read-out: MIC of evolved line, Escherichia coli ATCC 25922 (EC-SEN), evolved line 1): 0.25 µg/mL | MIC ([2]; read-out: MIC of evolved line, Escherichia coli ATCC 25922 (EC-SEN), evolved line 2): 0.125 µg/mL | MIC ([2]; read-out: MIC of evolved line, Escherichia coli ATCC 25922 (EC-SEN), evolved line 3): 0.25 µg/mL
